# From PubChem BioAssay AID342 (DTP/NCI, 2004)
# Values joined by “and” are separate entries in the source; they are usually repeats but may differ in a detail not shown here. Equal values may be shown once.
# Tested on: Swiss mice, Sarcoma 180 sc, mean tumor weight T/C
# Experiment: NCI In Vivo Anticancer Drug Screen. Data for tumor model Sarcoma 180 (subcutaneous) in Swiss mice
# Details: endpoint: mean tumor weight, higher = larger tumour
# Summary of the method: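 Mice bearing transplanted tumors were treated with compound, and survival or tumor size was measured. Values are expressed as the treated-group measurement (T) divided by the vehicle-treated control measurement (C).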
# [1] = dose: 26.0 mg/kg/injection, schedule: Q01DX007 (ip), vehicle: carboxymethylcellulose (CMC)
structure (smiles),measurement,setting,value
CC(=O)Nc1ccc2c(c1)Cc1cc(NC=O)ccc1-2,T/C,"dose: 110.0 mg/kg/injection, schedule: Q01DX007 (ip), vehicle: carboxymethylcellulose (CMC)",54 % of control and 72 % of control
same,T/C,"dose: 165.0 mg/kg/injection, schedule: Q01DX007 (ip), vehicle: carboxymethylcellulose (CMC)",87 % of control
same,T/C,"dose: 250.0 mg/kg/injection, schedule: Q01DX007 (ip), vehicle: carboxymethylcellulose (CMC)",46 % of control
same,T/C,"dose: 375.0 mg/kg/injection, schedule: Q01DX007 (ip), vehicle: carboxymethylcellulose (CMC)",79 % of control
O=CC1CO1 (configuration not stated),T/C,"dose: 50.0 mg/kg/injection, schedule: Q01DX007 (ip), vehicle: carboxymethylcellulose (CMC)",123 % of control
CC(C)(S)C(N)C(=O)O (configuration not stated),T/C,"dose: 500.0 mg/kg/injection, schedule: Q01DX007 (oral), vehicle: saline",122 % of control
same,T/C,"dose: 1000.0 mg/kg/injection, schedule: Q01DX007 (oral), vehicle: saline",118 % of control
C=CCOc1ccc2c(c1)CC[C@@H]1[C@@H]2CC[C@@]2(C)[C@H]1CC[C@]2(C)O,T/C,"dose: 0.5 mg/kg/injection, schedule: Q#A X014 (sc), vehicle: steriod suspending solution",80 % of control
same,T/C,"dose: 5.0 mg/kg/injection, schedule: Q#A X014 (sc), vehicle: steriod suspending solution",116 % of control
same,T/C,"dose: 50.0 mg/kg/injection, schedule: Q#A X014 (sc), vehicle: steriod suspending solution",71 % of control
O=S(=O)(OCCCl)OCCCl,T/C,"dose: 31.2 mg/kg/injection, schedule: Q01DX007 (ip), vehicle: other",54 % of control
same,T/C,"dose: 62.5 mg/kg/injection, schedule: Q01DX007 (ip), vehicle: other",66 % of control
Fc1ccc(NC(=S)Nc2cc(Cl)cc(Cl)c2)cc1,T/C,"dose: 15.0 mg/kg/injection, schedule: Q01DX007 (ip), vehicle: carboxymethylcellulose (CMC)",115 % of control
same,T/C,"dose: 30.0 mg/kg/injection, schedule: Q01DX007 (ip), vehicle: carboxymethylcellulose (CMC)",117 % of control
O=CNc1c(Br)cc2c(c1Br)Cc1cc([N+](=O)[O-])ccc1-2,T/C,"dose: 7.0 mg/kg/injection, schedule: Q01DX007 (ip), vehicle: carboxymethylcellulose (CMC)",52 % of control
same,T/C,"dose: 11.0 mg/kg/injection, schedule: Q01DX007 (ip), vehicle: carboxymethylcellulose (CMC)",45 % of control
same,T/C,"dose: 17.0 mg/kg/injection, schedule: Q01DX007 (ip), vehicle: carboxymethylcellulose (CMC)",40 % of control
same,T/C,[1],22 % of control
CC(=O)OCC(=O)[C@@]1(O)CC[C@H]2[C@@H]3C[C@H](F)C4=CC(=O)CC[C@]4(C)[C@H]3C(=O)C[C@@]21C,T/C,"dose: 2.5 mg/kg/injection, schedule: Q01DX007 (sc), vehicle: steriod suspending solution",60 % of control
same,T/C,"dose: 5.0 mg/kg/injection, schedule: Q01DX007 (sc), vehicle: steriod suspending solution",49 % of control
same,T/C,"dose: 10.0 mg/kg/injection, schedule: Q01DX007 (sc), vehicle: steriod suspending solution",51 % of control
same,T/C,"dose: 19.0 mg/kg/injection, schedule: Q01DX007 (sc), vehicle: steriod suspending solution",41 % of control
same,T/C,"dose: 29.0 mg/kg/injection, schedule: Q01DX007 (sc), vehicle: steriod suspending solution",31 % of control
S=c1nc[nH]c2nc[nH]c12,T/C,"dose: 3.25 mg/kg/injection, schedule: Q#A X014 (ip), vehicle: carboxymethylcellulose (CMC)",62 % of control
same,T/C,"dose: 3.62 mg/kg/injection, schedule: Q#A X014 (ip), vehicle: carboxymethylcellulose (CMC)",83 % of control
same,T/C,"dose: 6.5 mg/kg/injection, schedule: Q#A X014 (ip), vehicle: carboxymethylcellulose (CMC)",61 % of control
same,T/C,"dose: 7.25 mg/kg/injection, schedule: Q#A X014 (ip), vehicle: carboxymethylcellulose (CMC)",56 % of control
same,T/C,"dose: 7.5 mg/kg/injection, schedule: Q01DX007 (ip), vehicle: other",102 % of control
same,T/C,"dose: 10.4 mg/kg/injection, schedule: Q01DX007 (ip), vehicle: carboxymethylcellulose (CMC)",51 % of control
same,T/C,"dose: 13.0 mg/kg/injection, schedule: Q01DX007 (ip), vehicle: carboxymethylcellulose (CMC)",66 % of control
same,T/C,"dose: 13.0 mg/kg/injection, schedule: Q#A X014 (ip), vehicle: carboxymethylcellulose (CMC)",28 % of control
same,T/C,"dose: 14.5 mg/kg/injection, schedule: Q01DX007 (ip), vehicle: carboxymethylcellulose (CMC)",73 % of control and 83 % of control
same,T/C,"dose: 14.5 mg/kg/injection, schedule: Q#A X014 (ip), vehicle: carboxymethylcellulose (CMC)",48 % of control
same,T/C,"dose: 15.0 mg/kg/injection, schedule: Q01DX007 (ip), vehicle: other",101 % of control
same,T/C,"dose: 15.0 mg/kg/injection, schedule: Q#A X014 (ip), vehicle: methylcellulose (MC)",60 % of control
same,T/C,"dose: 17.3 mg/kg/injection, schedule: Q01DX007 (ip), vehicle: carboxymethylcellulose (CMC)",51 % of control
same,T/C,"dose: 19.0 mg/kg/injection, schedule: Q01DX007 (ip), vehicle: carboxymethylcellulose (CMC)",72 % of control
same,T/C,"dose: 23.2 mg/kg/injection, schedule: Q01DX007 (ip), vehicle: carboxymethylcellulose (CMC)",49 % of control
same,T/C,"dose: 25.0 mg/kg/injection, schedule: Q#A X014 (ip), vehicle: methylcellulose (MC)",55 % of control
same,T/C,[1],36 % of control
same,T/C,"dose: 26.0 mg/kg/injection, schedule: Q#A X014 (ip), vehicle: carboxymethylcellulose (CMC)",32 % of control
same,T/C,"dose: 29.0 mg/kg/injection, schedule: Q#A X014 (ip), vehicle: carboxymethylcellulose (CMC)",20 % of control
same,T/C,"dose: 30.0 mg/kg/injection, schedule: Q01DX007 (ip), vehicle: other",78 % of control
same,T/C,"dose: 37.5 mg/kg/injection, schedule: Q#A X014 (ip), vehicle: methylcellulose (MC)",34 % of control
same,T/C,"dose: 38.6 mg/kg/injection, schedule: Q01DX007 (ip), vehicle: carboxymethylcellulose (CMC)",36 % of control
same,T/C,"dose: 43.5 mg/kg/injection, schedule: Q01DX007 (ip), vehicle: carboxymethylcellulose (CMC)",27 % of control and 47 % of control
same,T/C,"dose: 44.0 mg/kg/injection, schedule: Q01DX007 (ip), vehicle: carboxymethylcellulose (CMC)",49 % of control
same,T/C,"dose: 50.0 mg/kg/injection, schedule: Q#A X014 (ip), vehicle: methylcellulose (MC)",14 % of control
same,T/C,"dose: 58.0 mg/kg/injection, schedule: Q01DX007 (ip), vehicle: carboxymethylcellulose (CMC)",14 % of control and 21 % of control and 28 % of control
same,T/C,"dose: 60.0 mg/kg/injection, schedule: Q01DX007 (ip), vehicle: other",33 % of control and 47 % of control
same,T/C,"dose: 66.0 mg/kg/injection, schedule: Q01DX007 (ip), vehicle: carboxymethylcellulose (CMC)",34 % of control
same,T/C,"dose: 100.0 mg/kg/injection, schedule: Q01DX007 (ip), vehicle: carboxymethylcellulose (CMC)",24 % of control
